# Measured values reported in article PMC11774939, “Optimizing lipopeptide bioactivity: The impact of non-ionic surfactant dressing” (Journal of Pharmaceutical Analysis, 2024).
# Like-named read-outs stand apart in the source and are kept apart here. Peptide text beside a SMILES is read from it. * marks the point of attachment. Palmitoyl = CCCCCCCCCCCCCCCC(=O)*
# What was measured:
# [1] = cited from earlier work
# [2] = cited from earlier work; remark: listed apart in the source
# Excerpt: Supplement mmc1.docx, table 1: Table S1. Lipopeptide-based drugs, with their characteristics, disease target, and the year of approval. | column: Plasma protein binding
# [3] = DLS of peptide-loaded poloxamer micelles; assay type: physicochemical; settings: lipopeptide-loaded Plur123 micelles, DLS 37 °C
# Protocol: Peptide-loaded poloxamer micelles were prepared by solubilizing the peptides in 50 g/L poloxamer solutions in PBS (pH 7.4). The peptides were previously dissolved in DMSO, and then the poloxamer solutions were added. The final DMSO content was 5%. The solutions were left shaking overnight to allow enough time for solubilization. Before the measurements, PBS was added to the solutions to reach 5 g/L poloxamer concentration. In the biological experiments, these samples were diluted twice with the corresponding culture media.
# The average hydrodynamic diameter (dH) and polydispersity of the peptide-loaded micelles were determined using a dynamic light scattering (DLS) instrument (NanoLab 3D^TM, LS Instruments, Fribourg, Switzerland) based on three-dimensional (3D) modulation technology. A fibre-coupled diode laser operating at 638 nm served as the light source. The measurements were performed at a detection angle of 90° and at temperatures of 37.00 ± 0.02 °C. The recorded autocorrelation functions were analyzed using the second order cumulant expansion method. Before the measurements, the samples were filtered with a 0.2 μm syringe filter.
# [4] = Antigen release, dialysis membrane assay; assay type: physicochemical; settings: pATIPC-Plur123 mixed micelles (80 µM peptide, Plur123 40 g/L in PBS), dialysis 10K MWCO, 37 °C, after 4 h, HPLC AUC vs 0 h
# Protocol: Lipopeptide release was assessed by incubating the mixed micelles in PBS at 37 °C for 6 hours, using the dialysis membrane method. Briefly, the pATIPC lipopeptide (80 µM) was dissolved in Plur123 (40 g/L, in PBS), mixed, then centrifuged using a 0.2 µm Nylon filter to remove the aggregated peptide particles. The formation of the mixed micelles was checked by DLS and the peptide content was measured by HPLC, as described above. Mixed micelle solution was then loaded into a Slide-A-Lyzer Mini Dialysis Device (10K MWCO) (Thermo Fisher Scientific, Waltham, MA, USA) and incubated at 37 °C using PBS as release medium. At 0, 1, 4 and 6 h, the micelles within the dialysis membrane were taken for measurements of particle size and distribution by DLS.
# [5] = Encapsulation efficacy: HPLC of lipopeptide passing 0.2 μm filter; assay type: physicochemical; settings: poloxamer 5 g/L in PBS, peptide pre-dissolved in DMSO (pL1 200 μM, pCM15 100 μM, pATIPC 10 μM); centrifuged through 0.2 μm nylon filter, HPLC AUC vs fully solubilized lipopeptide
# Protocol: Section S3 in the Supplementary data contains the detailed characterization of the mixed micelles (Fig. S7A). First, calibration curves were plotted for each lipopeptide in a medium in which the compounds were perfectly soluble, namely in eluent B (0.1% TFA in acetonitrile:water (4:1, V/V) solution) (Figs. S7B−D). Next, poloxamer-lipopeptide constructs were prepared as follows: the lipopeptide samples were pre-dissolved in DMSO and then mixed with the poloxamer/PBS solutions, left shaking overnight. In the next day, the concentration was adjusted by adding PBS to the solutions. The composition of the samples was as follows: poloxamer 5 g/L and peptides (pL1 200 μM, pCM15 100 μM, and pATIPC 10 μM). Then, lipopeptide/poloxamer constructs were centrifuged using a 0.2 μm nylon filter, diluted twice with eluent B, and injected to the HPLC column. […] The highest encapsulation efficacy was measured for the shortest lipopeptide pL1, and all three poloxamers formed mixed micelles with the lipopeptides in more than 80%. It was assumed that the filtered part of the samples contains the lipopeptide aggregates with particle size of […].
# Fig. S7. Formulation of Lipopeptides with Poloxamers. Overview of the analytical characterization of the samples (A). Calibration curves for the fully solubilized lipopeptides with the linear regression equation (B-D). […]
# S. aureus = system: S. aureus; parameters: method as in 2 sources, one per row (each row's own in cited_ref): ref 69 = [69]; PMID 34822969; doi:10.1016/j.micpath.2021.105301; 69 Roshanak S. Shahidi F. Tabatabaei Yazdi F. Buforin I an alternative to conventional antibiotics: Evaluation of the antimicrobial properties, stability, and safety Microb. Pathog. 161 2021 105301 10 ||| ref 53,70 = [53]; PMID 10890923; doi:10.1073/pnas.150518097; 53 Park C.B. Yi K.S. Matsuzaki K. Structure-activity analysis of buforin II, a histone H2A-derived antimicrobial peptide: The proline hinge is responsible for the cell-penetrating ability of buforin I || [70]; 70 Lee H. Yang S. Dimerization of cell-penetrating buforin II enhances antimicrobial properties J. Anal. Sci. Technol. 12 2021 9; settings: cited from earlier work
# Excerpt: (§1) However, since this peptide contains only four amino aci ...
# MRSA strain = system: MRSA strain; parameters: method as in PMID 34822969; settings: cited from earlier work
# Excerpt: as §1
# [6] = system: HT-29 colorectal adenocarcinoma cells; assay: In vitro antitumor effect, AlamarBlue; assay type: cell-based, human; settings: 5 μM pCM15 lipopeptide, 24 h treatment, vs medium-treated control, mean ± SD, n = 4
# Protocol: All data are presented as mean ± SD (n = 4). Statistical analysis was performed using one-way analysis of variance (ANOVA), followed by Tukey's post-hoc test. Statistical significances were denoted as ^∗P < 0.05, ^∗∗P < 0.01, and ^∗∗∗P < 0.001.
Compound,Route of elimination ([1]; approved drug characteristics),Plasma protein binding ([2]; approved drug characteristics),Half-life ([1]; approved drug characteristics),other results
Colistin,–,–,–,Half-life ([1]; in vivo): 5 h; Route of elimination ([1]; in vivo): Mainly urinary excretion; Plasma protein binding [2]: 50%
pal-KLVANNTRLTKPK- (FFGINTIPIAC)-GGLIDIAPHQISSV [pATIPC],–,–,–,"Increase in particle size after one week of storage as a solution [3]: 10 nm; pATIPC antigen remaining inside the micelles [4]: more than 50%; Encapsulation (lipopeptide in form <0.2 μm, in mixed micelles) [5]: around 60%"
Dalbavancin,Mainly through fecal excretion,93%,–,–
Rezafungin,Mainly through fecal excretion,87-99%,>130 h,–
Polymyxin B,Mainly urinary excretion,–,6 to 11.5 h,–
Daptomycin,Urinary excretion,90-94%,–,–
AGRGKQGGKVRAKAKTRSSRAGLQFPVGRVHRLLRKGNY [Buforin I],–,–,–,Concentration with activity against S. aureus (S. aureus): 10 µg/mL; MIC for the MRSA strain (MRSA strain): 14 µg/mL
Insulin detemir,–,–,–,Half-life ([1]; in vivo): 5 to 7 h; Route of elimination ([1]; in vivo): Mainly urinary excretion; Plasma protein binding [2]: 98%
CCCCCCCCCCCCCCCC(=O)N[C@@H](CCCCN)C(=O)N[C@@H](Cc1c[nH]c2ccccc12)C(=O)N[C@@H](CCCCN)C(=O)N[C@@H](CC(C)C)C(=O)N[C@@H](Cc1ccccc1)C(=O)N[C@@H](CCCCN)C(=O)N[C@@H](CCCCN)C(=O)N[C@H](C(=O)NCC(=O)N[C@@H](C)C(=O)N[C@H](C(=O)N[C@@H](CC(C)C)C(=O)N[C@@H](CCCCN)C(=O)N[C@H](C(=O)N[C@@H](CC(C)C)C(N)=O)C(C)C)C(C)C)[C@@H](C)CC [pCM15] (Palmitoyl-KWKLFKKIGAVLKVL-NH2),–,–,–,Cytotoxicity [6]: 35.0% ± 4.8
Micafungin,Mainly through fecal excretion,>99%,14 to 17 h,–
Caspofungin,Urinary and fecal excretion,97%,9 to 11 h,–
Insulin degludec,Mainly urinary excretion,>99%,25 h,–
